Patent US11312719B2, “9-substituted amino triazolo quinazoline derivatives as adenosine receptor antagonists, pharmaceutical compositions and their use” (Merck Sharp & Dohme Corp., priority 2018, dated 2022)

What was measured:
[1] = target: human A2b adenosine receptor (Homo sapiens (Human), UniProt P29275); experiment: A2b radioligand filtration binding assay; conditions: for IC50: membranes from HEK293 cells expressing human A2b receptor
Description: Measurement of A2b Binding Affinity
The reported affinity of the compounds of the invention for the human A2b adenosine receptor was determined experimentally using a radioligand filtration binding assay. This assay measures the amount of binding of a tritiated proprietary A2b receptor antagonist, in the presence and absence of a compound of the invention, to membranes made from HEK293 cells recombinantly expressing the human A2b adenosine receptor (Perkin Elmer, Cat. No. ES-013-C).
148 μL (135 μg/mL) membranes and 2 μL test compounds were transferred to individual wells of a 96-well polypropylene assay plate and incubated for 15 to 30 minutes at room temperature with agitation. Tritiated radioligand was diluted to a concentration of 14 nM in assay buffer (phosphate buffered saline without Magnesium and Calcium, pH 7.4; GE Healthcare Life Sciences, Cat. No. SH30256.01) and then 50 μL of the solution were transferred to each well of the assay plate. To define total and non-specific binding, wells containing 1% DMSO and 20 μM N-ethylcarboxamidoadenosine (Tocris Bioscience, Cat. No. 1691) respectively, were also included. The wells of the assay plate were incubated at room temperature for 60 minutes with agitation, then filtered using a FilterMate Harvester® (Perkin Elmer) or similar equipment through a UniFilter-96® PEI coated plate (Perkin Elmer Cat. No. 6005274 or 6005277). Filtering was achieved by aspirating the contents of the assay plate for 5 seconds, then washing and aspirating the contents three times with ice-cooled wash buffer (assay buffer supplemented with 0.0025% Brij58) and allowing the vacuum manifold to dry the plate for 30 seconds. The filter plate was incubated for at least 1 hour at 55° C. and allowed to dry. The bottom of the filter plate was then sealed with backing tape. 40 μL Ultima Gold™ (Perkin Elmer, Cat. No. 6013329) was added to each well of the filter plate and the top of the plate was sealed with TopSeal-A PLUS® clear plate seal (Perkin Elmer, Cat. No. 6050185). The plates were then incubated for at least 20 minutes, and then the amount of radioactivity remaining in each well was determined using a TopCount® (Perkin Elmer) scintillation counter. After normalization to total and non-specific binding, the percent effect at each compound concentration was calculated. The plot of percent effect versus the log of compound concentration was analyzed electronically using a 4-parameter logistic fit based on the Levenberg-Marquardt algorithm to generate IC50 values.

[2] = target: human A2a adenosine receptor (Homo sapiens (Human), UniProt P29274); experiment: A2a receptor affinity radioligand binding assay ([3H] SCH58261); conditions: for IC50: membranes from HEK293 or CHO cells expressing human A2a receptor
Sequence of human A2a adenosine receptor (P29274 whole entry): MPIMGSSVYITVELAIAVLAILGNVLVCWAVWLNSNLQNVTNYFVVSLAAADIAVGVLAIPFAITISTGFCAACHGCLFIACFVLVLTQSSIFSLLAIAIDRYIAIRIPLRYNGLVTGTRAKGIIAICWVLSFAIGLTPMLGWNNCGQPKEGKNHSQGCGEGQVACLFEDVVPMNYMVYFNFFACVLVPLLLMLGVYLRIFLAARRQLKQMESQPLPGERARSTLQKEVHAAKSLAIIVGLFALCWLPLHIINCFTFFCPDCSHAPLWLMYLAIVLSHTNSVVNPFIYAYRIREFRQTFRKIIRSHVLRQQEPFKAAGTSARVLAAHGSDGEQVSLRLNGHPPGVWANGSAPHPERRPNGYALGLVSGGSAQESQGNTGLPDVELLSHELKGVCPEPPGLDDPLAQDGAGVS
Description: The A2a receptor affinity binding assay measured the amount of binding of a tritiated ligand with high affinity for the A2a adenosine receptor to membranes made from HEK293 or CHO cells recombinantly expressing the human A2a adenosine receptor, in the presence of varying concentrations of a compound of the invention.
Measurement of A2a Binding Affinity Using Radioligand Binding
148 μL (5 μg/mL) membranes (Perkin Elmer, Cat. No. RBHA2aM400UA) and 2 μL compounds of the invention to be tested (test compound) were transferred to individual wells of a 96-well polypropylene assay plate and incubated for 15 to 30 minutes at room temperature. [^3H] SCH58261 ((7-(2-phenylethyl)-5-amino-2-(2-furyl)-pyrazolo-[4,3-e]-1,2,4-triazolo[1,5-c]pyrimidine)) was diluted in assay buffer (50 mM Tris pH 7.4, 10 mM MgCl2, 0.005% Tween20) to a concentration of 4 nM and 50 μL transferred to each well of the assay plate. To define total and non-specific binding, wells containing 1% DMSO and 1 μM ZM241385 (Tocris Bioscience, Cat. No. 1036) respectively, were also included. The assay plate was incubated at room temperature for 60 minutes with agitation. Using a FilterMate Harvester® (Perkin Elmer), the contents of the assay plate were filtered through a UniFilter-96® PEI coated plate (Perkin Elmer Cat. No. 6005274 or 6005277). Filtering was achieved by aspirating the contents of the assay plate for 5 seconds, then washing and aspirating the contents three times with ice-cooled wash buffer (50 mM Tris-HCl pH 7.4, 150 mM NaCl) and allowing the vacuum manifold to dry the plate for 30 seconds. The filter plate was incubated for at least 1 hour at 55° C., and allowed to dry. The bottom of the filter plate was sealed with backing tape. 40 μL Ultima Gold™ (Perkin Elmer, Cat. No. 6013329) was added to each well of the filter plate and the top of the plate was sealed with TopSeal-A PLUS® clear plate seal (Perkin Elmer, Cat. No. 6050185). The plate was incubated for at least 20 minutes, and then the amount of radioactivity remaining in each well was determined using a TopCount® (Perkin Elmer) scintillation counter. After normalization to total and non-specific binding, the percent effect at each compound concentration was calculated. The plot of percent effect versus the log of compound concentration was analyzed electronically using a 4-parameter logistic fit based on the Levenberg-Marquardt algorithm to generate IC50 values.

Sequence of human A2b adenosine receptor (P29275 whole entry): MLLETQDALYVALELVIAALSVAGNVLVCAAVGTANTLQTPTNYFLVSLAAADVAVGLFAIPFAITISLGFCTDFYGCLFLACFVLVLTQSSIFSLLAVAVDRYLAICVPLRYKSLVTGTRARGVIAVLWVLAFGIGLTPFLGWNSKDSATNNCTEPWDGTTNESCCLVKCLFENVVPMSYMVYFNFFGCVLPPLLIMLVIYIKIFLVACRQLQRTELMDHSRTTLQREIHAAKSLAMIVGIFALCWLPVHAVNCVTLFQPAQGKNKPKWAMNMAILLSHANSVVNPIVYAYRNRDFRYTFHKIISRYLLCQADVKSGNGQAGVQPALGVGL

IC50 [1] [nM]	IC50 [2] [nM]	A2B binding % Inh. @ 10000 nM ([1]; @ 10000 nM) [% Inh.]	A2A binding % Inh. @ 1000 nM ([2]; @ 1000 nM) [% Inh.]	SMILES
86.4	0.6			COc1cc2nc(N)n3nc(C4CCC(C)N(c5cn(C6CCOCC6)nc5C)C4)nc3c2cc1F (single isomer, unassigned) [Example 46, 9-fluoro-8-methoxy-24(3R,6S or 3S,6R)-6-methyl-1-(3-methyl-1-(tetrahydro-2H-pyran-4-yl)-1H-pyrazol-4-yl)piperidin-3-yl) [1,2,4]triazolo[1,5-c]quinazolin-5-amine]
6580	121			COc1cc2nc(N)n3nc([C@H]4C[C@H](F)CN(c5cnn(CC(C)(C)O)c5)C4)nc3c2cc1F (single isomer, unassigned) [Example 81, 1-(4-((3S,5S or 3R,5R)-3-(5-amino-9-fluoro-8-methoxy-[1,2,4]triazolo[1,5-c]quinazolin-2-yl)-5-fluoropiperidin-1-yl)-1H-pyrazol-1-yl)-2-methylpropan-2-ol]
2.6	4.6			COc1cc2nc(N)n3nc([C@@H]4CCCN(c5cnn(C(C)C)c5)C4)nc3c2cc1F [Example 4, (R)-9-fluoro-2-(1-(1-isopropyl-1H-pyrazol-4-yl)piperidin-3-yl)-8-methoxy-[1,2,4]triazolo[1,5-c]quinazolin-5-amine]
87.3	0.7			COc1cc2nc(N)n3nc([C@@H]4CCCN(c5cn(C6CCOCC6)nc5C(F)F)C4)nc3c2cc1F [Example 19, (R)-2-(1-(3-(difluoromethyl)-1-(tetrahydro-2H-pyran-4-yl)-1H-pyrazol-4-yl)piperidin-3-yl)-9-fluoro-8-methoxy-[1,2,4]triazolo[1,5-c]quinazolin-5-amine]
225	3			COc1cc2nc(N)n3nc([C@@H]4CCCN(c5cnn([C@H]6C[C@@](C)(O)C6)c5)C4)nc3c2cc1F [Example 14, (1s,3s)-3-(4-((R)-3-(5-amino-9-fluoro-8-methoxy-[1,2,4]triazolo[1,5-c]quinazolin-2-yl)piperidin-l-yl)-1H-pyrazol-1-yl)-methylcyclobutan-1-ol]
539	104			Cn1cc(N2CCCC(c3nc4c5cc(F)ccc5nc(N)n4n3)C2)cn1 (single isomer, unassigned) [Example 102, (R or S)-9-fluoro-2-(1-(1-methyl-1H-pyrazol-4-yl)piperidin-3-yl)-[1,2,4]triazolo[1,5-c]quinazolin-5-amine]
1160	120			COc1cc2nc(N)n3nc(C4CCC(C)N(c5cnn(C(C)(C)CO)c5)C4)nc3c2cc1F (single isomer, unassigned) [Example 127, 2-(4-((2R or 2S,5R or 5S)-5-(5-amino-9-fluoro-8-methoxy-[1,2,4]triazolo[1,5-c]quinazolin-2-yl)-2-methylpiperidin-1-yl)-1H-pyrazol-1-yl)-2-methylpropan-1-ol]
846	1.8			COc1cc2nc(N)n3nc(C4CC(F)CN(c5cnn(C6CCOCC6)c5)C4)nc3c2cc1F (single isomer, unassigned) [Example 56, 9-fluoro-2-((3R,5S or 3S,5R)-5-fluoro-1-(1-(tetrahydro-2H-pyran-4-yl)-1H-pyrazol-4-yl)piperidin-3-yl)-8-methoxy-[1,2,4]triazolo[1,5-c]quinazolin-5-amine]
470	4.1			COc1cc2nc(N)n3nc([C@@H]4CCCN(c5cn(CS(C)(=O)=O)nc5C)C4)nc3c2cc1F [Example 129, (R)-9-fluoro-8-methoxy-2-(1-(3-methyl-1-((methylsulfonyl)methyl)-1H-pyrazol-4-yl)piperidin-3-yl)-[1,2,4]triazolo[1,5-c]quinazolin-5-amine]
116	0.9			COc1cc2nc(N)n3nc([C@@H]4CCCN(c5cnn([C@H]6CC[C@]6(C)O)c5)C4)nc3c2cc1F (single isomer, unassigned) [Example 98, (1S or 1R,2S or 2R)-2-(4-((R)-3-(5-amino-9-fluoro-8-methoxy-[1,2,4]triazolo[1,5-c]quinazolin-2-yl)piperidin-1-yl)-1H-pyrazol-1-yl)-1-methylcyclobutan-1-ol]
559	4.3			COc1cc(F)cc2c1nc(N)n1nc(C3(F)CCCN(c4cnn(CC(C)(C)O)c4)C3)nc21 (single isomer, unassigned) [Example 133, (S or R)-1-(4-(3-(5-amino-9-fluoro-7-methoxy-[1,2,4]triazolo[1,5-c]quinazolin-2-yl)-3-fluoropiperidin-1-yl)-1H-pyrazol-1-yl)-2-methylpropan-2-ol]
		31	44	COc1cc2nc(N)n3nc(C4CN(c5cnn(CC(C)(C)O)c5)CCC4C)nc3c2cc1F (single isomer, unassigned) [Example 67, 1-(4-((3R or 3S,4R or 4S)-3-(5-amino-9-fluoro-8-methoxy-[1,2,4]methylpiperidin-1-yl)-1H-pyrazol-1-yl)-2-methylpropan-2-ol]
905	38.4			COc1cc2nc(N)n3nc([C@@H]4CCCN(c5cnn(CC6(C)COC6)c5)C4)nc3c2cc1F [Example 15, (R)-9-fluoro-8-methoxy-2-(1-(1-((3-methyloxetan-3-yl)methyl)-1H-pyrazol-4-yl)piperidin-3-yl)[1,2,4] triazolo[1,5-c]quinazolin-5-amine]
231	4.4			COc1cc2nc(N)n3nc([C@@H]4CCCN(c5cnn([C@@H]6CC[C@@]6(C)O)c5)C4)nc3c2cc1F (single isomer, unassigned) [Example 99, (1R or 1S,2R or 2S)-2-(4-((R)-3-(5-amino-9-fluoro-8-methoxy-[1,2,4]triazolo[1,5-c]quinazolin-2-yl)piperidin-1-yl)-1H-pyrazol-1-yl)-1-methylcyclobutan-1-ol]
3.4	0.7			COc1cc2nc(N)n3nc(C4CCC(C)N(c5cnn(C(C)(C)C(C)(C)O)c5)C4)nc3c2cc1F (single isomer, unassigned) [Example 43, 3-(4-((2S,5R or 2R,5S)-5-(5-amino-9-fluoro-8-methoxy-[1,2,4]triazolo[1,5-c]quinazolin-2-yl)-2-methylpiperidin-1-yl)-1H-pyrazol-1-yl)-2,3-dimethylbutan-2-ol]
2820	16.8			COc1cc2nc(N)n3nc(C4CCCN(c5cnn(CC(C)(C)O)c5)C4=O)nc3c2cc1F (racemic) [Example 139, rac-3-(5-amino-9-fluoro-8-methoxy-[1,2,4]triazolo[1,5-c]quinazolin-2-yl)-1-(1-(2-hydroxy-2-methylpropyl)-1H-pyrazol-4-yl)piperidin-2-one]
315	5.8			COc1cc2nc(N)n3nc([C@@H]4CCCN(c5cnn(CCCC(C)=O)c5)C4)nc3c2cc1F [Example 93, (R)-5-(4-(3-(5-amino-9-fluoro-8-methoxy-[1,2,4]triazolo[1,5-c]quinazolin-2-yl)piperidin-1-yl)-1H-pyrazol-1-yl)pentan-2-one]
